Experimental data published in patent US12559454B2, “Benzenesulfonamide derivatives and uses thereof” (2692372 Ontario, Inc., priority 2019, dated 2026).

Columns and labels:
[1] = system: MV4-11 cells; assay: CellTiter-Blue cell viability, MV-4-11; type: cell-based; conditions: Homo sapiens, 72 hrs exposure
Protocol: Anti-cancer efficacy of exemplary compounds of this application was assessed in vitro in different cancer cell lines. Cell viability was examined following treatment at various concentration of inhibitor (0.097656-50 μM) using a cell Titer-Blue cell viability assay. 1×10^4 cells (NHF, MV4-11, K562 and MOLM-13 cells)/well were plated in 96-well assay plates in culture medium. All cells were grown in DMEM, IMDM and RPMI-1640 supplemented with 10% FBS. After 24 hrs, test compounds and vehicle controls were added to appropriate wells so the final volume was 100 μl in each well. The cells were cultured for the desired test exposure period (72 hrs) at 37° C. and 5% CO2. The assay plates were removed from 37° C. incubator and 20 μl/well of CellTiter-Blue® Reagent was added. The plates were incubated using standard cell culture conditions for 1-4 hours and the plates were shaken for 10 seconds and record fluorescence at 560/590 nm.

[2] = system: tubulin; assay: Tubulin polymerization assay; type: biochemical; conditions: for % Inhibition: Vmax normalized to tubulin only control; for % D.O.P.: degree of polymerization relative to tubulin control
Protocol: A96-well half-area clear flat-bottom microplate (Corning® #3697) was pre-heated in a plate reader (Cytation 3, BioTek) at 37° C. for 15 minutes prior to the start of each assay. Tubulin polymerization buffer (80 mM PIPES pH 6.9, 2 mM MgCl2, 0.5 mM EGTA, 15% glycerol, 1 mM GTP) was prepared from stock solutions and placed on ice. Inhibitors were prepared to M concentrations in buffer (80 mM PIPES pH 6.9, 2 mM MgCl2, 0.5 mM EGTA, 5% DMSO) from DMSO stock solutions. After the assay plate was pre-warmed, 10 μL of inhibitor or buffer control was added to selected wells. Every assay contained a tubulin only negative control for normalization of data, and a batabulin positive control. The assay plate was incubated at 37° C. for 3 minutes. During this time, a frozen aliquot of tubulin (10 mg/mL) in buffer (80 mM PIPES pH 6.9, 2 mM MgCl2, 0.5 mM EGTA) was defrosted by placing in a room temperature water bath. Once thawed, 200 μL of tubulin was mixed with 420 μL ice cold tubulin polymerization buffer (3 mg/mL tubulin in 80 mM PIPES, pH 6.9, 2 mM MgCl2, 0.5 mM EGTA, 1 mM GTP, 10.2% glycerol). To a 96-well plate on ice, aliquots of 100 μL tubulin was added to each well. From this plate, 90 μL of tubulin was immediately pipetted into all sample wells of the warmed assay plate using a multi-channel pipette. The assay plate was immediately put in the reader at 37° C. and shook for 5 s with orbital shaking at medium speed. The reader recorded the absorbance at 340 nm every 15 s for 30 min.
The resulting absorbance curves were normalized by subtracting each data point by the absorbance at time 0.
The largest change in absorbance over the assay time course was also recorded and related to the tubulin control as the % degree of polymerization (% D.O.P.).

Row | Compound | IC50 [1] [µM] | % Inhibition [2] | % D.O.P. [2]
1 | COc1c(F)c(F)c(F)c(F)c1S(=O)(=O)N(C)C [Compound I-4, 2,3,4,5-tetrafluoro-6-methoxy-N,N-dimethylbenzenesulfonamide] | 1 to 10 | – | –
2 | CNc1c(F)c(F)c(F)c(F)c1S(=O)(=O)Nc1ccc(OC)c(F)c1 [Compound I-86, 2,3,4,5-tetrafluoro-N-(3-fluoro-4-methoxyphenyl)-6-(methylamino)benzenesulfonamide] | 0.1 to 1 | A (<10%) | A (>85%)
3 | COc1ccc(NS(=O)(=O)c2c(F)c(F)c(F)c(F)c2OC2CCC2)cc1F [Compound I-69, 2-cyclobutoxy-3,4,5,6-tetrafluoro-N-(3-fluoro-4-methoxyphenyl)benzenesulfonamide] | 0.1 to 1 | A (<10%) | A (>85%)
4 | COc1ccc(CNc2c(F)c(F)c(F)c(F)c2S(=O)(=O)Nc2ccc(OC)c(F)c2)cc1 [Compound I-87, 2,3,4,5-tetrafluoro-N-(3-fluoro-4-methoxyphenyl)-6-((4-methoxybenzyl)amino)benzenesulfonamide] | – | A (<10%) | A (>85%)
5 | O=S(=O)(Nc1ccc(Oc2ccccc2)cc1)c1c(F)c(F)c(F)c(F)c1OC1CC1 [Compound I-103, 2-cyclopropoxy-3,4,5,6-tetrafluoro-N-(4-phenoxyphenyl)benzenesulfonamide] | > 10 | – | –
6 | COc1ccc(NS(=O)(=O)c2c(F)c(F)c(F)c(F)c2Oc2ccc(F)cc2)cc1F [Compound I-80, 2,3,4,5-tetrafluoro-N-(3-fluoro-4-methoxyphenyl)-6-(4-fluorophenoxy)benzenesulfonamide] | 0.1 to 1 | – | –
7 | O=S(=O)(Nc1cccc2ccccc12)c1c(F)c(F)c(F)c(F)c1OC1CC1 [Compound I-104, 2-cyclopropoxy-3,4,5,6-tetrafluoro-N-(naphthalen-1-yl)benzenesulfonamide] | > 10 | – | –
8 | COc1ccc(CN(Cc2ccc(OC)cc2)S(=O)(=O)c2c(O)c(F)c(F)c(F)c2F)cc1 [Compound I-82, 2,3,4,5-tetrafluoro-6-hydroxy-N,N-bis(4-methoxybenzyl)benzenesulfonamide] | – | B (10-20%) | A (>85%)
9 | N#Cc1ccc(NS(=O)(=O)c2c(F)c(F)c(F)c(F)c2OC2CC2)cc1 [Compound I-101, N-(4-cyanophenyl)-2-cyclopropoxy-3,4,5,6-tetrafluorobenzenesulfonamide] | > 10 | – | –
10 | COc1ccc(NS(=O)(=O)c2c(N)c(F)c(F)c(F)c2F)cc1F [Compound I-88, 2-amino-3,4,5,6-tetrafluoro-N-(3-fluoro-4-methoxyphenyl)benzenesulfonamide] | – | A (<10%) | A (>85%)

Second part, led by results:

Row | IC50 [1] [µM] | Compound | % Inhibition [2] | % D.O.P. [2]
11 | > 10 | O=S(=O)(Nc1ccc(F)cc1F)c1c(F)c(F)c(F)c(F)c1OC1CC1 [Compound I-97, 2-cyclopropoxy-N-(2,4-difluorophenyl)-3,4,5,6-tetrafluorobenzenesulfonamide] | – | –
12 | 1 to 10 | O=S(=O)(Nc1ccccc1)c1c(F)c(F)c(F)c(F)c1OC1CC1 [Compound I-95, 2-cyclopropoxy-3,4,5,6-tetrafluoro-N-phenylbenzenesulfonamide] | – | –
13 | > 10 | COc1ccc(NS(=O)(=O)c2c(F)c(F)c(F)c(F)c2OC2CCCC2)cc1F [Compound I-70, 2-(cyclopentyloxy)-3,4,5,6-tetrafluoro-N-(3-fluoro-4-methoxyphenyl)benzenesulfonamide] | A (<10%) | A (>85%)
14 | 0.1 to 1 | O=S(=O)(Nc1ccc(F)cc1)c1c(F)c(F)c(F)c(F)c1OC1CC1 [Compound I-96, 2-cyclopropoxy-3,4,5,6-tetrafluoro-N-(4-fluorophenyl)benzenesulfonamide] | A (<10%) | A (>85%)
15 | > 10 | O=S(=O)(Nc1cc(F)c(F)cc1F)c1c(F)c(F)c(F)c(F)c1OC1CC1 [Compound I-98, 2-cyclopropoxy-3,4,5,6-tetrafluoro-N-(2,4,5-trifluorophenyl)benzenesulfonamide] | – | –
